Results as given in patent US20240423988A1, “Improvement of Tumor Immunogenicity by Means of Splicing-Controlling Compound” (Kyoto University, priority 2021, published 2024).

Columns and labels:
[1] = test system: splenocytes (CD8^+ and CD4^+ T cells); assay: Ex vivo splenocyte culture assay (antigen-independent T cell activation); format: cell-based, mice; conditions: 24 hours
[2] = test system: B2m-knockout MC38 clones; assay: B2m KO MC38 clones and negative control clone intradermally inoculated into mice; format: in vivo
Procedure: [FIG. 3-2] Continuation of FIG. 3. G to J: The experimental schema (G), tumor volumes (H), flow cytometric images (I), as well as quantitative data (J) of tumor-infiltrating CD8^+ T cells on day 23 are shown (n=5 to 9/group). * represents p<0.05, and ** represents p<0.01. K: Tumor volumes of mice (n=5 to 6/group). Mice were intraperitoneally injected with 35 μg of αPD-L1 antibody or isotype control (isotype IgG) once weekly on days 9 and 16 for NC and days 11 and 18 for B2M KO #2. * represents p<0.05. All data are shown as the mean±SEM. Experiments were performed at least twice for A to F, or once for others. Statistical significance was determined using unpaired Student's t-test for (H), (J), and (K) and one-way ANOVA followed by Bonferroni's multiple comparisons test for (D) and (F).
Furthermore, whether neoantigen presentation in cancer cells is important for the antitumor effects of Compound 1 was investigated by establishing a CRISPR-Cas9-mediated knockout of B2m, an essential component of MHC class I, using MC38 cells. […] It was further confirmed that surface H-2K^b on these cells disappeared (FIGS. 3-1C and 3-1D) without affecting IFN-γ signaling (FIG. 3-1A) and the expression of PD-L1 on the cell surface (FIGS. 3-1E and 3-1F).
Then, these B2m KO MC38 clones were intradermally inoculated into immunodeficient mice, and the antitumor effects of Compound 1 were evaluated (FIG. 3-2G).

[3] = test system: MC38 cells; assay: RNA-seq analysis of RNA splicing patterns in MC38 cells; format: cell-based, murine
Procedure: [FIG. 4-1] FIG. 4. Identification of Compound 1-inducible splice-neoantigen candidates using RNA-seq analysis. A: A diagram of enhanced tumor immunity through compound 1-induced splice-neoantigens. B: A scheme for the screening of Compound 1-induced splice-neoantigen candidates through transcriptome analysis and prediction for MHC class I presentation. RNA-seq was conducted for MC38 cells treated with 10 μM Compound 1 or 0.1% DMSO for 6 hours in three biological replicates each. RNA-seq analysis was performed as detailed in the “Experimental Methods” section.
Aberrant selective splicing events in cancer cells may become a source of potential neoantigens. As it was confirmed that MHC class I in cancer cells is indispensable for the antitumor effects of Compound 1, Compound 1 was predicted to alter aberrant alternative splicing events and enhance the production of splice-neoantigens (FIG. 4-1A). To validate this concept, RNA-seq analysis was performed to assess RNA splicing patterns affected by Compound 1 in MC38 cells and splice products yielding potential neoantigens capable of binding to MHC class I (FIG. 4-1B). […] Next, to identify neoepitopes translating potential splice-neoantigens, splicing events elicited by Compound 1 that created abnormal coding sequences were extracted, and subsequently, whether these events create abnormal peptides were checked by comparing them with a reference peptide database.
With this approach, 169 Compound 1-induced non-annotated splice events for 130 genes were identified as neoantigen candidates, which were further subjected to prioritization based on the prediction scores for the binding affinity of each peptide to MHC class I alleles (H2-K^b and H2-D^b) with NetMHCpan4.1, the extents of splice rates, and mRNA expression (FIG. 4-2C).
RNA-Seq libraries were prepared using a TruSeq Stranded mRNA Library Kit (Illumina, San Diego, CA) and used for paired-end sequencing on an Illumina NovaSeq 6000 platform. RNA-seq data were mapped to the GRCm38 (mm10) genome sequence using HISAT2 program version 2.2.0 with the “--rna-strandness RF” option. Splice-junction information available from Ensembl gene annotation version 100 was used in this process. Mapped results were discarded when either of the paired reads was not mapped to the genome, or the relationships of mapping positions were abnormal.
For splicing analysis, rMATS program version 4.1.0 was used. For the reference transcript models used in the rMATS analysis, a set of new transcripts based on RNA-seq data was constructed using Cufflinks program version 2.2.1. Because the rMATS program skips soft-clipped reads and reads having indels in their alignment, bam files were modified to replace soft clipping and indel information as not changing the splice position information. After rMATS analysis, altered splicing events were extracted according to the following criteria: FDR<0.01, dPSI≥5.0, and average number of spliced reads≥15 in either of the samples.
Spliced regions were compared with Ensembl gene annotations for describing the amino acid sequence encoded in these regions. Amino acid sequences not observed in the original peptide database were searched and stored with seven amino acids margins from known sequences.

Q: Which “CD44^+ and CD69^+ marker expressions in CD8^+ and CD4^+ T cells” value ([1]; flow cytometry) does the source give for `Clc1nc(NCc2ccco2)c2[nH]cnc2n1` [Compound 1] here?
A: Its value is “no such effects”.

Q: What about the “secretion of inflammatory cytokines IFN-γ and TNF-α” value ([1]; supernatant) of the same compound?
A: The value was “not observed”.

Q: What about the “antitumor effects (tumor growth)” value ([2]; B2m KO clones) of the same compound?
A: The value was “completely abolished”.

Q: And the “number of CD8^+ T cells in tumors” value ([2]; B2m KO-derived tumors)?
A: The value was “no longer inducible”.

Q: And the “antitumor effects (tumor growth)” value ([2]; negative control clone)?
A: The value was “suppressed tumor growth”.

Q: What about the “exonization induced in neurofibromin 1 (Nf1)” value [3] of the same compound?
A: The value was 108 bp.

Q: What about the “genes with induced non-annotated splice events” value ([3]; 10 μM, 6 hours) of the same compound?
A: The value was 130.

Q: What about the “induced non-annotated splice events identified as neoantigen candidates” value ([3]; 10 μM, 6 hours) of the same compound?
A: The value was 169.

Q: What about the “mRNA expression and splicing patterns of H2-K^b and PD-L1” value ([3]; RNA-seq data) of the same compound?
A: Its value is “not significantly altered”.

Q: What about the “mRNA expression of genes encoding conventional neoantigens” value ([3]; data not shown) of the same compound?
A: The value was “no effect”.
